From patent publication US8993757B2, “N-piperidin-4-yl derivatives” (Merck Sharp & Dohme B.V., priority 2011, dated 2015) come the findings set out here.

As usually defined, the IC50 is the point on the concentration scale where inhibition reaches its midpoint.

Where “and” joins values, the source holds several entries; their conditions need not be identical. Identical values can stand only once.

The target of the test is T1, human FSH receptor (Homo sapiens, UniProt P23945).
T1 construct: expressed in transfected cells; host or cells: CHO cells, cotransfected with a CRE/promotor firefly luciferase reporter
T1 sequence (P23945 18-695): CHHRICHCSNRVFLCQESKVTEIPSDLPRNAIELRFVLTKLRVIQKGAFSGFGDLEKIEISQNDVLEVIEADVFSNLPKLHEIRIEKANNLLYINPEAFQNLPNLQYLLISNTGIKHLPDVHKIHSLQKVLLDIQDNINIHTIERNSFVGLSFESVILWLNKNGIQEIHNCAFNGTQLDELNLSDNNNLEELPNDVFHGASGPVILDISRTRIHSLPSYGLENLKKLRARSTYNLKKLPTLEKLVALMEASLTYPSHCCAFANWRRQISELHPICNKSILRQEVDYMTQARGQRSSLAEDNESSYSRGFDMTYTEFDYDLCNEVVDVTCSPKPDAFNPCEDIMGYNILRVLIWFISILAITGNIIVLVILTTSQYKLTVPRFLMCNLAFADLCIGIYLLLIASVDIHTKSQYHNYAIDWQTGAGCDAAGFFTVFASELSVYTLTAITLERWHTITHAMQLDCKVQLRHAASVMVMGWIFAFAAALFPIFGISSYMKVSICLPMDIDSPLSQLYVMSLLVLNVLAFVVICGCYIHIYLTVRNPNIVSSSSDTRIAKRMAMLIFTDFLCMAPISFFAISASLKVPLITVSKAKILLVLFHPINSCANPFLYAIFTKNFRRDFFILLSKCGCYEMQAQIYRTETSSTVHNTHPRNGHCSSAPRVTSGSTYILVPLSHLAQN
Put plainly: Antagonistic activity at the human FSH receptor expressed in CHO cells (CRE-luciferase reporter). Type of test: cell-based. The following applies: CHO cells stably transfected with human FSH receptor and CRE/firefly luciferase reporter; 4 hours incubation; read-out: pIC50 (negative logarithm of the IC50 value) (converted). How it is done: The FSHR antagonists of the invention have pIC50 values higher than 6 in said assay. The preferred compounds of the invention have pIC50 values higher than 8.
Antagonistic activity of the compounds at the human FSH receptor was determined in Chinese Hamster Ovary (CHO) cells stably transfected with the human FSH receptor and cotransfected with a cAMP responsive element (CRE)/promotor directing the expression of a firefly luciferase reporter gene. […] The cells (7,500 cells/well of a 384 well plate) were incubated in Dulbecco′ minimal essential F12 modified medium (Invitrogen), supplemented with 1 μg/ml bovine insulin, 5 μg/ml human apo-transferrin, 100 U/ml penicillin G and 100 μg/ml streptomycin with the test compounds (concentration between 0.316 nM and 10.0 μM) in duplicate together with […] (which, at this concentration in the absence of test compound, induces 80% of the maximal luciferase stimulation) in a humidified atmosphere (95%) at 5-7% CO2 and 37° C. The final concentration of DMSO was 1%. After 4 hours of incubation, plates were allowed to adjust to room temperature for 1 hour. Then, SteadyLite (Perkin Elmer) solution was added to the wells and cells were allowed to lyse for at least 1 hour at room temperature. Subsequently, luciferase activity was measured in a luminescence counter. The signal is expressed as counts per second (cps). The IC50 (concentration of test compound causing half-maximal (50%) inhibition of the maximally attainable inhibition of the luciferase stimulation by the compound) and efficacy of the compounds were determined using the software program MathIQ (version 2.3, ID Business Solutions Limited).

For `COc1cc(OCC2CC2)cc(C(=O)NCC2CCN(c3ncnc(-c4cccc(C(=O)NCC(F)F)c4)n3)CC2)c1` [Example 32G, 3-(cyclopropylmethoxy)-N-((1-(4-(3-(2,2-difluoroethylcarbamoyl)phenyl)-1,3,5-triazin-2-yl)piperidin-4-yl)methyl)-5-methoxybenzamide], the half-inhibitory concentration (IC50) was 10 to 100 nM.
For the molecule `COc1cc(OCC2CC2)cc(C(=O)NCC2CCN(c3ncnc(-c4cccc(C(=O)NCCO)c4)n3)CC2)c1` [Example 32H, 3-(cyclopropylmethoxy)-N-((1-(4-(3-(2-hydroxyethylcarbamoyl)phenyl)-1,3,5-triazin-2-yl)piperidin-4-yl)methyl)-5-methoxybenzamide], the IC50 is 10 to 100 nM.
For `COc1cc(OCC2CC2)cc(C(=O)NCC2CCN(c3ncnc(-c4cccc(C(=O)Nc5nccs5)c4)n3)CC2)c1` [Example 32I, 3-(cyclopropylmethoxy)-5-methoxy-N-((1-(4-(3-(thiazol-2-ylcarbamoyl)phenyl)-1,3,5-triazin-2-yl)piperidin-4-yl)methyl)benzamide] the value was 10 to 100 nM; for `COc1cc(OCC2CC2)cc(C(=O)NCC2CCN(c3ccnc(-c4cccc(-n5cc(C)cn5)c4)n3)CC2)c1` [Example 33A, 3-(cyclopropylmethoxy)-5-methoxy-N-((1-(2-(3-(4-methyl-1H-pyrazol-1-yl)phenyl)pyrimidin-4-yl)piperidin-4-yl)methyl)benzamide], 10 to 100 nM and < 10 nM.
Then `COc1cc(OCC2CC2)cc(C(=O)NCC2CCN(c3ccnc(-c4ccc5oncc5c4)n3)CC2)c1` [Example 33B, N-((1-(2-(benzo[d]isoxazol-5-yl)pyrimidin-4-yl)piperidin-4-yl)methyl)-3-(cyclopropylmethoxy)-5-methoxybenzamide], with 10 to 100 nM; and `COc1cc(OCC2CC2)cc(C(=O)NCC2CCN(c3ccnc(-c4ccc(F)c(C#N)c4)n3)CC2)c1` [Example 33C, N-((1-(2-(3-cyano-4-fluorophenyl)pyrimidin-4-yl)piperidin-4-yl)methyl)-3-(cyclopropylmethoxy)-5-methoxybenzamide], with 10 to 100 nM; and `COc1cc(OCC2CC2)cc(C(=O)NCC2CCN(c3ccnc(-c4cccc(-n5ncc(C(=O)O)c5C)c4)n3)CC2)c1` [Example 33D, 1-(3-(4-(4-((3-(cyclopropylmethoxy)-5-methoxybenzamido)methyl)piperidin-1-yl)pyrimidin-2-yl)phenyl)-5-methyl-1H-pyrazole-4-carboxylic acid], with 10 to 100 nM.
For `COc1cc(OCC2CC2)cc(C(=O)NCC2CCN(c3ccnc(-c4cccc(-n5cccn5)n4)n3)CC2)c1` [Example 33E, N-((1-(2-(6-(1H-pyrazol-1-yl)pyridin-2-yl)pyrimidin-4-yl)piperidin-4-yl)methyl)-3-(cyclopropylmethoxy)-5-methoxybenzamide], the IC50 was 10 to 100 nM.
For `COc1cc(OCC2CC2)cc(C(=O)NCC2CCN(c3ncnc(-c4ccc(O)c(C#N)c4)n3)CC2)c1` [Example 34, N-((1-(4-(3-cyano-4-hydroxyphenyl)-1,3,5-triazin-2-yl)piperidin-4-yl)methyl)-3-(cyclopropylmethoxy)-5-methoxybenzamide] the value was 10 to 100 nM; for `COc1cc(OCC2CC2)cc(C(=O)NC2CC23CCN(c2ccnc(-c4cccc(-n5cccn5)c4)n2)CC3)c1` (stereo not drawn) [Example 35, N-(6-(2-(3-(1H-pyrazol-1-yl)phenyl)pyrimidin-4-yl)-6-azaspiro[2.5]octan-1-yl)-3-(cyclopropylmethoxy)-5-methoxybenzamide], 10 to 100 nM.
Then `COc1cc(OCC2CC2)cc(C(=O)NC(C)C2CCN(c3ncnc(-c4cccc(-c5cc[nH]n5)c4)n3)CC2)c1` (stereo not drawn) [Example 37, N-(1-(1-(4-(3-(1H-pyrazol-3-yl)phenyl)-1,3,5-triazin-2-yl)piperidin-4-yl)ethyl)-3-(cyclopropylmethoxy)-5-methoxybenzamide], with under 10 nM; and `COc1cc(OCC2CC2)cc(C(=O)NC(C)C2CCN(c3ccnc(-c4cccc(C#N)c4)n3)CC2)c1` (stereo not drawn) [Example 38, N-(1-(1-(2-(3-cyanophenyl)pyrimidin-4-yl)piperidin-4-yl)ethyl)-3-(cyclopropylmethoxy)-5-methoxybenzamide], with under 10 nM.
Then `COc1cc(OCC2CC2)cc(C(=O)NC(C)C2CCN(c3ccnc(-c4cccc(-n5cccn5)c4)n3)CC2)c1` (stereo not drawn) [Example 39, N-(1-(1-(2-(3-(1H-pyrazol-1-yl)phenyl)pyrimidin-4-yl)piperidin-4-yl)ethyl)-3-(cyclopropylmethoxy)-5-methoxybenzamide], with under 10 nM; and `COc1cc(OCC2CC2)cc(C(=O)NCC2CCN(c3ncnc(-c4cccc(-c5ncc[nH]5)c4)n3)CC2)c1` [Example 40, N-((1-(4-(3-(1H-imidazol-2-yl)phenyl)-1,3,5-triazin-2-yl)piperidin-4-yl)methyl)-3-(cyclopropylmethoxy)-5-methoxybenzamide 2,2,2-trifluoroacetate], with under 10 nM.
Regarding `COc1cc(OCC2CC2)cc(C(=O)NCC2CCN(c3nc(-c4cccc(-c5ncc[nH]5)c4)ncc3F)CC2)c1` [Example 41, N-((1-(2-(3-(1H-imidazol-2-yl)phenyl)-5-fluoropyrimidin-4-yl)piperidin-4-yl)methyl)-3-(cyclopropylmethoxy)-5-methoxybenzamide 2,2,2-trifluoroacetate], the concentration for half-maximal inhibition (IC50) was under 10 nM.
Consider `COc1cc(NC(=O)C2CCN(c3ccnc(-c4cccc(-n5cccn5)c4)n3)CC2)cc(OCc2ccc(F)cc2)c1` [Example 42, 1-(2-(3-(1H-pyrazol-1-yl)phenyl)pyrimidin-4-yl)-N-(3-(4-fluorobenzoxy)-5-methoxyphenyl)piperidine-4-carboxamide], for which the IC50 is 10 to 100 nM.
Then `COc1cc(NC(=O)C2CCN(c3ccnc(-c4cccc(-n5cccn5)c4)n3)CC2)cc(OCc2cc(C)on2)c1` [Example 43, 1-(2-(3-(1H-pyrazol-1-yl)phenyl)pyrimidin-4-yl)-N-(3-methoxy-5-((5-methylisoxazol-3-yl)methoxy)phenyl)piperidine-4-carboxamide], with under 10 nM.
For `COc1cc(NC(=O)C2CCN(c3ccnc(-c4cccc(-n5cccn5)c4)n3)CC2)cc(OC(C)C)c1` [Example 44, 1-(2-(3-(1H-pyrazol-1-yl)phenyl)pyrimidin-4-yl)-N-(3-isopropoxy-5-methoxyphenyl)piperidine-4-carboxamide] the value was 10 to 100 nM; for `COc1cc(NC(=O)C2CCN(c3ccnc(-c4cccc(-n5cccn5)c4)n3)CC2)cc(OCC2CCCCC2)c1` [Example 45, 1-(2-(3-(1H-pyrazol-1-yl)phenyl)pyrimidin-4-yl)-N-(3-(cyclohexylmethoxy)-5-methoxyphenyl)piperidine-4-carboxamide], 10 to 100 nM; for `Cc1cc(NC(=O)C2CCN(c3ccnc(-c4cccc(-n5cccn5)c4)n3)CC2)cc(OC(F)(F)F)c1` [Example 46, 1-(2-(3-(1H-pyrazol-1-yl)phenyl)pyrimidin-4-yl)-N-(3-methyl-5-(trifluoromethoxy)phenyl)piperidine-4-carboxamide], 10 to 100 nM.
Regarding `COc1cc(NC(=O)C2CCN(c3ccnc(-c4cccc(-n5cccn5)c4)n3)CC2)cc(OC)c1` [Example 51, 1-(2-(3-(1H-pyrazol-1-yl)phenyl)pyrimidin-4-yl)-N-(3,5-dimethoxyphenyl) piperidine-4-carboxamide], the half-maximal inhibitory concentration (IC50) is under 10 nM.
